For this experiment, the system named is diabetic rats, n0STZ. Put plainly: Oral glucose tolerance test (OGTT) in n0STZ diabetic rats: plasmatic glycaemia and insulinaemia. The format is in vivo, rat. Particulars: for Plasmatic insulin / Plasmatic glucose / Plasmatic glucose AUC / Plasmatic insulin AUC: OGTT glucose 2 g/kg, products given 2 hours before, Compound A 12.5 mg/kg, glibenclamide 2 mg/kg; for Plasmatic glucose AUC / Plasmatic insulin AUC: AUC over 0-120 min; for effect on carbohydrate tolerance: acute administration, 12.5 mg/kg compound A or 2 mg/kg glibenclamide. On the procedure: Diabetes is induced in male rats (source: Iffa Credo) by intravenous administration of streptozotocin on the day of birth.
The rats are selected according to the criterion of hyperglycaemia 170±15 mg/dl.
The animals are grouped into 5 rats per batch and divided into 4 batches
The products are administered 2 hours before the glucose tolerance test, at a rate of 12.5 mg/kg for 4-[2-(2,4-dioxothiazolidin-5-yl)ethoxy]benzonitrile, 2 mg/kg for glibenclamide and the combination of the 2 products at the doses used in monotherapy.
The glucose tolerance test (OGTT) is performed on the conscious animal and consists in administering glucose at a rate of 2 g/kg. The plasmatic glucose clearance is analysed after this glucose load, over 2 hours (0-10-20-30-45-60-90 and 120 min).
In addition to plasmatic glycaemia, insulinaemia is also determined.

With `N#Cc1ccc(OCCC2SC(=O)NC2=O)cc1` (stereo not shown) [Compound A, 4-[2-(2,4-dioxothiazolidin-5-yl)ethoxy]benzonitrile], the “Plasmatic glucose AUC” value is 47702.5 and the “Plasmatic insulin AUC” value is 10384.25. Moreover, where the note is “0 min”, the Plasmatic insulin is 47.2 μU/ml. Further, for the setting “0 min, 5 rats/batch”, the Plasmatic glucose is 160 mg/dL. Moreover, under “10 min”, the Plasmatic glucose stood at 321 mg/dL and the Plasmatic insulin is 100.8 μU/ml. For the same compound, where the note is “20 min”, the Plasmatic glucose was found to be 381 mg/dL and the Plasmatic insulin came out at 89.6 μU/ml. For the same compound, where the note is “30 min”, the Plasmatic glucose was 418 mg/dL and the Plasmatic insulin is 84.5 μU/ml. For the setting “45 min”, the Plasmatic glucose came out at 424 mg/dL and the Plasmatic insulin came out at 74.6 μU/ml. Also, under “60 min”, the Plasmatic glucose was determined as 447 mg/dL and the Plasmatic insulin is reported as 77 μU/ml. In addition, for the setting “90 min”, the Plasmatic glucose amounted to 419 mg/dL and the Plasmatic insulin amounted to 93.8 μU/ml. For the setting “120 min”, the Plasmatic glucose is 378 mg/dL and the Plasmatic insulin was 101.5 μU/ml. For the same compound, the “decrease observed (carbohydrate tolerance, glucose curve vs control)” value (acute 12.5 mg/kg, n0STZ rats, OGTT) is listed as 6%. Further, the “effect on carbohydrate tolerance” value (n0STZ rats, OGTT) was “little or no effect”.
Consider `COc1ccc(Cl)cc1C(=O)NCCc1ccc(S(=O)(=O)NC(=O)NC2CCCCC2)cc1` [Glibenclamide], for which the “Plasmatic glucose AUC” value worked out at 55027.5 and the “Plasmatic insulin AUC” value is on record as 11930.75. For the same compound, the Plasmatic insulin (0 min) stood at 84.2 μU/ml. For the setting “0 min, 5 rats/batch”, the Plasmatic glucose is 138 mg/dL. Moreover, for the setting “10 min”, the Plasmatic glucose was 312 mg/dL and the Plasmatic insulin was 116.9 μU/ml. Besides, under “20 min”, the Plasmatic glucose turned out to be 407 mg/dL and the Plasmatic insulin is listed as 129.4 μU/ml. In addition, for the setting “30 min”, the Plasmatic glucose worked out at 470 mg/dL and the Plasmatic insulin is given as 105.8 μU/ml. In addition, where the note is “45 min”, the Plasmatic glucose was found to be 520 mg/dL and the Plasmatic insulin stood at 100 μU/ml. Under “60 min”, the Plasmatic glucose was 513 mg/dL and the Plasmatic insulin came out at 88.3 μU/ml. Further, under “90 min”, the Plasmatic glucose stood at 507 mg/dL and the Plasmatic insulin is listed as 92.5 μU/ml. Moreover, where the note is “120 min”, the Plasmatic glucose amounted to 448 mg/dL and the Plasmatic insulin was determined as 97.5 μU/ml. In addition, the “increase observed (carbohydrate tolerance, glucose curve vs control)” value (acute 2 mg/kg, n0STZ rats, OGTT) is on record as 6%. In addition, the “effect on carbohydrate tolerance” value (n0STZ rats, OGTT) is recorded as “little or no effect”.

These data come from patent US20040097567A1, “Pharmaceutical composition” (priority 2001, published 2004).
